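48-hour exposure; five concentrations; linearly interpolated endpoints. Here, GI50 denotes the concentration required for 50% inhibition of growth.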 The source made the active and inactive calls. Rule as the data show it: active = GI50 up to about 1.1 µM and inactive = higher.
How the values were obtained:
Test in all cases: DTP human tumour cell line panel, 48 h
A549 = test system: A549
COLO 205 = test system: COLO 205
DMS-114 = test system: DMS-114
HL-60 = test system: HL-60
K562 = test system: K562
NCI-H23 = test system: NCI-H23
NCI-H522 = test system: NCI-H522
OVCAR-4 = test system: OVCAR-4
SK-MEL-28 = test system: SK-MEL-28
SK-MEL-2 = test system: SK-MEL-2
SK-OV-3 = test system: SK-OV-3
SW-620 = test system: SW-620
UO-31 = test system: UO-31
786-0 = test system: 786-0
ACHN = test system: ACHN
LXFL 529 = test system: LXFL 529
M14 = test system: M14
MDA-MB-231 = test system: MDA-MB-231
MDA-MB-435 = test system: MDA-MB-435
T47D = test system: T47D

Measured: GI50

CC1(CO)C(O)CCC2(C)C1C(O)CC1CC3CC12CCC3(O)CO (centres undefined)
inactive: A549 > 225 µM | COLO 205 > 225 µM | DMS-114 > 225 µM | HL-60 102 µM | K562 > 225 µM | NCI-H23 > 225 µM | NCI-H522 > 225 µM | OVCAR-4 > 225 µM | SK-MEL-28 > 225 µM | SK-MEL-2 > 225 µM | SK-OV-3 > 225 µM | SW-620 > 225 µM | UO-31 > 217 µM

CC1CCCc2c(CC3CC(=O)NC(=O)C3)n[nH]c21 (centres undefined)
inactive: 786-0 > 100 µM | A549 > 100 µM | ACHN > 100 µM | COLO 205 > 100 µM | DMS-114 > 100 µM | HL-60 > 100 µM | K562 > 100 µM | LXFL 529 > 100 µM | M14 > 100 µM | NCI-H23 > 100 µM | NCI-H522 > 100 µM | OVCAR-4 > 100 µM | SK-MEL-28 > 100 µM | SK-OV-3 > 100 µM | SW-620 > 100 µM | UO-31 > 100 µM

Cc1ccccc1NC(=O)c1ccc([N+](=O)[O-])cc1
inactive: 786-0 > 100 µM | A549 > 100 µM | ACHN > 100 µM | COLO 205 > 100 µM | DMS-114 74 µM | HL-60 46.8 µM | K562 93.5 µM | LXFL 529 > 100 µM | M14 > 100 µM | NCI-H23 > 100 µM | NCI-H522 28 µM | OVCAR-4 > 100 µM | SK-MEL-28 > 100 µM | SK-OV-3 > 100 µM | SW-620 > 100 µM | UO-31 > 100 µM

COc1cc(Nc2nc3cc(C(F)(F)F)ccc3nc2C)cc(OC)c1OC
inactive: 786-0 12.2 µM | A549 > 10 µM | ACHN 8.11 µM | COLO 205 12.1 µM | DMS-114 11.2 µM | K562 5.52 µM | LXFL 529 9.91 µM | M14 7.6 µM | NCI-H23 10.7 µM | NCI-H522 12.3 µM | OVCAR-4 16.3 µM | SK-MEL-28 12.5 µM | SK-MEL-2 11 µM | SK-OV-3 14.4 µM | SW-620 13.3 µM | UO-31 4.22 µM

CCCCCNC(=O)CCCCCCCCCCCNC(=O)CCCCCCCCCCN1C=CC(=CC=C2C=CC(=O)C=C2)C=C1
inactive: 786-0 > 100 µM | A549 > 100 µM | ACHN > 100 µM | COLO 205 15.3 µM | DMS-114 12.6 µM | HL-60 2.51 µM | K562 21.2 µM | LXFL 529 5.86 µM | M14 > 100 µM | NCI-H23 28.2 µM | NCI-H522 32.4 µM | OVCAR-4 65 µM | SK-MEL-28 > 100 µM | SK-OV-3 > 100 µM | SW-620 54.1 µM | UO-31 > 100 µM

O=[N+]([O-])c1ccc(CNC2=NNS(=O)(=O)c3ccccc32)cc1
inactive: 786-0 > 100 µM | A549 > 100 µM | ACHN > 100 µM | COLO 205 > 100 µM | DMS-114 > 100 µM | HL-60 79.3 µM | K562 27 µM | LXFL 529 36.1 µM | M14 > 100 µM | OVCAR-4 > 100 µM | SK-MEL-2 > 100 µM | SW-620 > 100 µM | UO-31 > 100 µM

O=C1C(=O)N(C(=O)c2ccc(Cl)c(Cl)c2)c2ccc(Cl)cc21
inactive: 786-0 > 100 µM | A549 > 100 µM | ACHN > 100 µM | COLO 205 > 100 µM | DMS-114 27.1 µM | HL-60 20.3 µM | K562 59.3 µM | LXFL 529 71.4 µM | M14 > 100 µM | NCI-H23 > 100 µM | OVCAR-4 64.6 µM | SK-MEL-28 > 100 µM | SK-OV-3 > 100 µM | SW-620 92 µM | UO-31 > 100 µM

CCN(CC)CC1CCCCN1CC(=O)N1CC(C)C(=O)Nc2ccccc21 (centres undefined)
inactive: 786-0 > 100 µM | A549 > 100 µM | ACHN > 100 µM | COLO 205 > 100 µM | DMS-114 > 100 µM | HL-60 > 100 µM | K562 > 100 µM | LXFL 529 > 100 µM | M14 > 100 µM | NCI-H23 > 100 µM | OVCAR-4 > 100 µM | SK-MEL-28 > 100 µM | SK-OV-3 > 100 µM | SW-620 > 100 µM | UO-31 > 100 µM

COc1cc(-c2ccccc2)c(OC)cc1CCl
inactive: 786-0 > 100 µM | A549 > 100 µM | ACHN > 100 µM | COLO 205 > 100 µM | DMS-114 > 100 µM | HL-60 > 100 µM | K562 > 100 µM | M14 > 100 µM | NCI-H23 > 100 µM | NCI-H522 > 100 µM | OVCAR-4 > 100 µM | SK-MEL-2 > 100 µM | SK-OV-3 > 100 µM | SW-620 > 100 µM | UO-31 > 100 µM

COc1ccc(/C=C/C(=O)c2cc(C(=O)O)c(OC)cc2OC)cc1OC
inactive: 786-0 > 100 µM | A549 > 100 µM | ACHN > 100 µM | COLO 205 > 100 µM | DMS-114 > 100 µM | HL-60 > 100 µM | K562 > 100 µM | LXFL 529 > 100 µM | M14 > 100 µM | NCI-H23 > 100 µM | NCI-H522 > 100 µM | OVCAR-4 > 100 µM | SK-MEL-28 > 100 µM | SW-620 > 100 µM

O=c1c2ccccc2c(=O)c2c1c1[nH]c3ccccc3c1c1c(=O)c3ccccc3c(=O)c21
inactive: 786-0 > 100 µM | A549 > 100 µM | ACHN > 100 µM | COLO 205 > 100 µM | DMS-114 > 100 µM | HL-60 > 100 µM | K562 > 100 µM | M14 > 100 µM | NCI-H23 > 100 µM | NCI-H522 > 100 µM | OVCAR-4 > 100 µM | SK-MEL-28 > 100 µM | SK-MEL-2 > 100 µM | SK-OV-3 > 100 µM | SW-620 > 100 µM | UO-31 > 100 µM

O=C(O)Cc1ccccc1CCc1ccccc1Cl
inactive: 786-0 > 100 µM | A549 > 100 µM | COLO 205 > 100 µM | HL-60 > 100 µM | K562 > 100 µM | LXFL 529 > 100 µM | M14 > 100 µM | NCI-H23 > 100 µM | NCI-H522 > 100 µM | OVCAR-4 > 100 µM | SK-MEL-28 > 100 µM | SK-MEL-2 30.8 µM | SK-OV-3 > 100 µM | SW-620 > 100 µM | UO-31 > 100 µM

Cn1c2c(c3ccccc31)CCN(CCCN1CCN(c3ccccc3)CC1)C2=O
inactive: 786-0 19.5 µM | A549 23.6 µM | ACHN 21.6 µM | COLO 205 17.6 µM | DMS-114 16.9 µM | HL-60 13.5 µM | K562 17.3 µM | LXFL 529 17.9 µM | M14 16.4 µM | NCI-H23 20.5 µM | NCI-H522 14.3 µM | SK-MEL-28 18.1 µM | SK-OV-3 19.9 µM | SW-620 22.1 µM | UO-31 14.7 µM

O=C(Nc1ccc([N+](=O)[O-])cc1C(=O)O)c1ccc([N+](=O)[O-])cc1
inactive: 786-0 31.6 µM | A549 59.6 µM | ACHN 25.3 µM | COLO 205 > 10 µM | DMS-114 5.97 µM | HL-60 17.1 µM | K562 15.1 µM | LXFL 529 24.4 µM | M14 36.2 µM | OVCAR-4 27.4 µM | SK-MEL-28 31.1 µM | SK-MEL-2 19.2 µM | SK-OV-3 79.3 µM | SW-620 46.3 µM | UO-31 34.3 µM

O/N=C1/CCCC/C1=C/C=C/c1ccccc1
inactive: 786-0 23.2 µM | A549 22.8 µM | ACHN 25.6 µM | COLO 205 19.4 µM | HL-60 13.1 µM | K562 18.4 µM | LXFL 529 26 µM | M14 21.2 µM | NCI-H23 22.8 µM | NCI-H522 19.1 µM | OVCAR-4 30.3 µM | SK-MEL-28 3.42 µM | SK-MEL-2 17.7 µM | SK-OV-3 39 µM | SW-620 26.5 µM | UO-31 20.6 µM

O=[PH](O)c1cc2ccccc2c2ccccc12
inactive: 786-0 > 100 µM | A549 > 100 µM | COLO 205 > 100 µM | DMS-114 > 100 µM | HL-60 > 100 µM | K562 > 100 µM | LXFL 529 > 100 µM | M14 > 100 µM | NCI-H23 > 100 µM | NCI-H522 > 100 µM | OVCAR-4 > 100 µM | SK-MEL-28 > 100 µM | SK-OV-3 > 100 µM | SW-620 > 100 µM

C=C1C2CC(OC(C)=O)C3(C)C(c4ccoc4)OC(=O)[C@@H](O)[C@]13OC1C[C@H](OC(C)=O)C(C)(C)[C@H](CC(=O)OC)[C@]12C (some centres undefined)
inactive: 786-0 > 100 µM | A549 > 100 µM | ACHN > 100 µM | COLO 205 > 100 µM | DMS-114 > 100 µM | HL-60 50.6 µM | K562 > 100 µM | LXFL 529 > 100 µM | M14 > 100 µM | NCI-H23 > 100 µM | OVCAR-4 93.5 µM | SK-MEL-28 > 100 µM | SK-MEL-2 > 100 µM | SK-OV-3 > 100 µM | SW-620 > 100 µM | UO-31 > 100 µM

O=C(Oc1ccccn1)c1cc2cc(CCl)ccc2oc1=O
inactive: 786-0 19.5 µM | A549 > 100 µM | ACHN 43.8 µM | COLO 205 51.2 µM | HL-60 41.8 µM | K562 32.7 µM | M14 > 100 µM | MDA-MB-231 19.7 µM | MDA-MB-435 51.3 µM | NCI-H23 21.6 µM | NCI-H522 15.2 µM | OVCAR-4 23 µM | SK-MEL-28 49 µM | SK-MEL-2 25.9 µM | SK-OV-3 > 100 µM | SW-620 30.8 µM | T47D 32.7 µM | UO-31 33.7 µM

— ChEMBL document CHEMBL1201862, “PubChem BioAssay data set” (2004)
